Measurements reported in ChEMBL document CHEMBL5113427, “Bioevaluation of a dual PI3K/HDAC inhibitor for the treatment of diffuse large B-cell lymphoma” (Bioorg Med Chem Lett, 2022).
One block for each compound: values may come before it. Calls of active or inactive are those of the source. No cut-off for these calls is given here.

Key:
DOHH-2 [1] = experiment: Induction of cell cycle arrest in human DOHH-2 cells assessed as accumulation at S phase measured by flow cytometry analysis; format: functional, cell-based
DOHH-2 [2] = experiment: Induction of cell cycle arrest in human DOHH-2 cells assessed as accumulation at G2/M phase measured by flow cytometry analysis; format: functional, cell-based
DOHH-2 [3] = experiment: Induction of cell cycle arrest in human DOHH-2 cells assessed as accumulation at G2/M phase in presence of pictilisib measured by flow cytometry analysis; format: functional, cell-based
DOHH-2 [4] = experiment: Induction of apoptosis in human DOHH-2 cells measured by flow cytometry analysis; format: functional, cell-based
OCI-Ly3 [5] = experiment: Induction of apoptosis in human OCILY3 cells measured by flow cytometry analysis; format: functional, cell-based
[6] = molecular target: T1, Histone deacetylase (Homo sapiens) (UniProt Q13547+O15379+Q9UBN7+Q92769+Q9UQL6+Q8WUI4+Q9BY41+Q96DB2+P56524+Q9UKV0+Q969S8); experiment: Inhibition of HDAC in human DOHH-2 cells assessed as Down-regulation of STAT3 phosphorylation at Y705 residue at 10 uM measured by Western blot analysis; format: cell-based
[7] = molecular target: T1, Histone deacetylase (Homo sapiens); experiment: Inhibition of HDAC in human OCILY3 cells assessed as Down-regulation of STAT3 phosphorylation at Y705 residue at 10 uM measured by Western blot analysis; format: cell-based
[8] = molecular target: T1, Histone deacetylase (Homo sapiens); experiment: Inhibition of HDAC in human DOHH-2 cells assessed as effect on pS6 levels at 10 uM measured by Western blot analysis; format: cell-based
[9] = molecular target: T1, Histone deacetylase (Homo sapiens); experiment: Inhibition of HDAC in human OCILY3 cells assessed as effect on pS6 levels at 10 uM measured by Western blot analysis; format: cell-based
DOHH-2 [10] = experiment: Antiproliferative activity against human DOHH-2 cells measured after 4 days by Cell Titer Glo Luminescent Cell Viability Assay; format: functional, cell-based; conditions: DOHH-2, 96 h
[11] = Antiproliferative activity against human HBL1 cells measured after 4 days by Cell Titer Glo Luminescent Cell Viability Assay; format: functional, cell-based; conditions: HBL1, 96 h
KARPAS-422 = experiment: Antiproliferative activity against human KARPAS-422 cells measured after 4 days by Cell Titer Glo Luminescent Cell Viability Assay; format: functional, cell-based; conditions: KARPAS-422, 96 h
OCI-Ly3 [12] = experiment: Antiproliferative activity against human OCILY3 cells measured after 4 days by Cell Titer Glo Luminescent Cell Viability Assay; format: functional, cell-based; conditions: OCI-Ly3, 96 h
OCI-Ly7 = experiment: Antiproliferative activity against human OCILY7 cells measured after 4 days by Cell Titer Glo Luminescent Cell Viability Assay; format: functional, cell-based; conditions: OCI-Ly7, 96 h
OCI-LY19 = experiment: Antiproliferative activity against human OCILY19 cells measured after 4 days by Cell Titer Glo Luminescent Cell Viability Assay; format: functional, cell-based; conditions: OCI-LY19, 96 h
Pfeiffer = experiment: Antiproliferative activity against human Pfeiffer cells measured after 4 days by Cell Titer Glo Luminescent Cell Viability Assay; format: functional, cell-based; conditions: 96 h
SUD4 [13] = experiment: Antiproliferative activity against human SU-DHL-4 cells measured after 4 days by Cell Titer Glo Luminescent Cell Viability Assay; format: functional, cell-based; conditions: SU-DHL-4, 96 h
SU-DHL-5 = experiment: Antiproliferative activity against human SU-DHL-5 cells measured after 4 days by Cell Titer Glo Luminescent Cell Viability Assay; format: functional, cell-based; conditions: SU-DHL-5, 96 h
SU-DHL-6 = experiment: Antiproliferative activity against human SU-DHL-6 cells measured after 4 days by Cell Titer Glo Luminescent Cell Viability Assay; format: functional, cell-based; conditions: SU-DHL-6, 96 h
SU-DHL-8 = experiment: Antiproliferative activity against human SU-DHL-8 cells measured after 4 days by Cell Titer Glo Luminescent Cell Viability Assay; format: functional, cell-based; conditions: SU-DHL-8, 96 h
SU-DHL10 = experiment: Antiproliferative activity against human SU-DHL-10 cells measured after 4 days by Cell Titer Glo Luminescent Cell Viability Assay; format: functional, cell-based; conditions: SU-DHL10, 96 h
Toledo = experiment: Antiproliferative activity against human Toledo cells measured after 4 days by Cell Titer Glo Luminescent Cell Viability Assay; format: functional, cell-based; conditions: 96 h
U2932 = experiment: Antiproliferative activity against human U2932 cells measured after 4 days by Cell Titer Glo Luminescent Cell Viability Assay; format: functional, cell-based; conditions: U2932, 96 h
WSUDLCL2 = experiment: Antiproliferative activity against human WSUDLCL2 cells measured after 4 days by Cell Titer Glo Luminescent Cell Viability Assay; format: functional, cell-based; conditions: WSUDLCL2, 96 h
WSU-NHL = experiment: Antiproliferative activity against human WSU-NHL cells measured after 4 days by Cell Titer Glo Luminescent Cell Viability Assay; format: functional, cell-based; conditions: 96 h
DOHH-2 [14] = experiment: Induction of cell cycle arrest in human DOHH-2 cells assessed as accumulation at S phase at 0.01 to 1 uM measured by flow cytometry analysis; format: functional, cell-based; conditions: dose 0.01-1 µM, DDE = dose-dependent effect
DOHH-2 [15] = experiment: Induction of apoptosis in human DOHH-2 cells at 0.01 to 1 uM measured by flow cytometry analysis; format: functional, cell-based; conditions: dose 0.01-1 µM, DDE = dose-dependent effect
OCI-Ly3 [16] = experiment: Induction of apoptosis in human OCILY3 cells at 0.01 to 1 uM measured by flow cytometry analysis; format: functional, cell-based; conditions: dose 0.01-1 µM, DDE = dose-dependent effect
DOHH-2 [17] = experiment: Induction of apoptosis in human DOHH-2 cells assessed as upregulation of cleaved-PARP at 0.01 to 1 uM measured by Western blot analysis; format: functional, cell-based; conditions: dose 0.01-1 µM
DOHH-2 [18] = experiment: Induction of apoptosis in human DOHH-2 cells assessed as upregulation of cleaved-caspase3 at 0.01 to 1 uM measured by Western blot analysis; format: functional, cell-based; conditions: dose 0.01-1 µM
OCI-Ly3 [19] = experiment: Induction of apoptosis in human OCILY3 cells assessed as upregulation of cleaved-PARP at 0.01 to 1 uM measured by Western blot analysis; format: functional, cell-based; conditions: dose 0.01-1 µM
OCI-Ly3 [20] = experiment: Induction of apoptosis in human OCILY3 cells assessed as upregulation of cleaved-caspase3 at 0.01 to 1 uM measured by Western blot analysis; format: functional, cell-based; conditions: dose 0.01-1 µM
[21] = molecular target: Phosphatidylinositol 4,5-bisphosphate 3-kinase catalytic subunit alpha isoform (Homo sapiens) (UniProt P42336); experiment: Inhibition of PI3Kalpha in human DOHH-2 cells assessed as decrease in AKT phosphorylation at 0.01 to 1 uM measured by western blot analysis; format: cell-based; conditions: dose 0.01-1 µM
[22] = molecular target: Phosphatidylinositol 4,5-bisphosphate 3-kinase catalytic subunit alpha isoform (Homo sapiens) (UniProt P42336); experiment: Inhibition of PI3Kalpha in human OCILY3 cells assessed as decrease in AKT phosphorylation at Ser473 residue at 0.01 to 1 uM measured by western blot analysis; format: cell-based; conditions: dose 0.01-1 µM
[23] = molecular target: Phosphatidylinositol 4,5-bisphosphate 3-kinase catalytic subunit alpha isoform (Homo sapiens) (UniProt P42336); experiment: Inhibition of PI3Kalpha in human OCILY3 cells assessed as decrease in AKT phosphorylation at Thr308 residue at 0.01 to 1 uM measured by western blot analysis; format: cell-based; conditions: dose 0.01-1 µM
[24] = molecular target: T1, Histone deacetylase (Homo sapiens); experiment: Inhibition of HDAC in human DOHH-2 cells assessed as Down-regulation of STAT3 phosphorylation at Y705 residue at 0.01 to 1 uM measured by Western blot analysis; format: cell-based; conditions: dose 0.01-1 µM
[25] = molecular target: T1, Histone deacetylase (Homo sapiens); experiment: Inhibition of HDAC in human OCILY3 cells assessed as Down-regulation of STAT3 phosphorylation at Y705 residue at 0.01 to 1 uM measured by Western blot analysis; format: cell-based; conditions: dose 0.01-1 µM
[26] = molecular target: T1, Histone deacetylase (Homo sapiens); experiment: Inhibition of HDAC in human DOHH-2 cells assessed as effect on pS6 levels at 0.01 to 1 uM measured by Western blot analysis; format: cell-based; conditions: dose 0.01-1 µM
[27] = molecular target: T1, Histone deacetylase (Homo sapiens); experiment: Inhibition of HDAC in human OCILY3 cells assessed as effect on pS6 levels at 0.01 to 1 uM measured by Western blot analysis; format: cell-based; conditions: dose 0.01-1 µM
[28] = molecular target: T1, Histone deacetylase (Homo sapiens); experiment: Inhibition of HDAC in human DOHH-2 cells assessed as increase in Ac-H3 levels at 0.01 to 1 uM measured by Western blot analysis; format: cell-based; conditions: dose 0.01-1 µM
[29] = molecular target: T1, Histone deacetylase (Homo sapiens); experiment: Inhibition of HDAC in human OCILY3 cells assessed as increase in Ac-H3 levels at 0.01 to 1 uM measured by Western blot analysis; format: cell-based; conditions: dose 0.01-1 µM
[30] = molecular target: T1, Histone deacetylase (Homo sapiens); experiment: Inhibition of HDAC in human DOHH-2 cells assessed as increase in Ac-p53 levels at 0.01 to 1 uM measured by Western blot analysis; format: cell-based; conditions: dose 0.01-1 µM
[31] = molecular target: T1, Histone deacetylase (Homo sapiens); experiment: Inhibition of HDAC in human OCILY3 cells assessed as increase in Ac-p53 levels at 0.01 to 1 uM measured by Western blot analysis; format: cell-based; conditions: dose 0.01-1 µM
[32] = molecular target: Phosphatidylinositol 4,5-bisphosphate 3-kinase catalytic subunit alpha isoform (Homo sapiens) (UniProt P42336); experiment: Inhibition of PI3Kalpha in human DOHH-2 cells assessed as decrease in AKT phosphorylation at 0.5 to 1 hrs measured by western blot analysis; format: cell-based; conditions: time 0.5-1 hrs
[33] = molecular target: Phosphatidylinositol 4,5-bisphosphate 3-kinase catalytic subunit alpha isoform (Homo sapiens) (UniProt P42336); experiment: Inhibition of PI3Kalpha in human OCILY3 cells assessed as decrease in AKT phosphorylation at 0.5 to 1 hrs measured by western blot analysis; format: cell-based; conditions: time 0.5-1 hrs
[34] = molecular target: T1, Histone deacetylase (Homo sapiens); experiment: Inhibition of HDAC in human DOHH-2 cells assessed as down-regulation of STAT3 phosphorylation at Y705 residue at 0.5 to 12 hrs measured by Western blot analysis; format: cell-based; conditions: time 0.5-12 hrs
[35] = molecular target: T1, Histone deacetylase (Homo sapiens); experiment: Inhibition of HDAC in human OCILY3 cells assessed as down-regulation of STAT3 phosphorylation at Y705 residue at 0.5 to 12 hrs measured by Western blot analysis; format: cell-based; conditions: time 0.5-12 hrs
[36] = molecular target: T1, Histone deacetylase (Homo sapiens); experiment: Inhibition of HDAC in human DOHH-2 cells assessed as decrease in p-S6 level at 0.5 to 12 hrs measured by Western blot analysis; format: cell-based; conditions: time 0.5-12 hrs
[37] = molecular target: T1, Histone deacetylase (Homo sapiens); experiment: Inhibition of HDAC in human OCILY3 cells assessed as decrease in p-S6 level at 0.5 to 12 hrs measured by Western blot analysis; format: cell-based; conditions: time 0.5-12 hrs
[38] = molecular target: T1, Histone deacetylase (Homo sapiens); experiment: Inhibition of HDAC in human DOHH-2 cells assessed as […] level at 0.5 to 12 hrs measured by Western blot analysis; format: cell-based; conditions: time 0.5-12 hrs
[39] = molecular target: T1, Histone deacetylase (Homo sapiens); experiment: Inhibition of HDAC in human OCILY3 cells assessed as […] level at 0.5 to 12 hrs measured by Western blot analysis; format: cell-based; conditions: time 0.5-12 hrs
SUD4 [40] = experiment: Antitumour activity against CM-Dil labeled human SU-DHL-4 cells xenografted in zebrafish embryo assessed as decrease in tumor growth at 3 uM measured by fluorescence based assay; format: functional, cell-based

Phosphatidylinositol 4,5-bisphosphate 3-kinase catalytic subunit alpha isoform (Homo sapiens), sequence (P42336 whole entry, canonical isoform): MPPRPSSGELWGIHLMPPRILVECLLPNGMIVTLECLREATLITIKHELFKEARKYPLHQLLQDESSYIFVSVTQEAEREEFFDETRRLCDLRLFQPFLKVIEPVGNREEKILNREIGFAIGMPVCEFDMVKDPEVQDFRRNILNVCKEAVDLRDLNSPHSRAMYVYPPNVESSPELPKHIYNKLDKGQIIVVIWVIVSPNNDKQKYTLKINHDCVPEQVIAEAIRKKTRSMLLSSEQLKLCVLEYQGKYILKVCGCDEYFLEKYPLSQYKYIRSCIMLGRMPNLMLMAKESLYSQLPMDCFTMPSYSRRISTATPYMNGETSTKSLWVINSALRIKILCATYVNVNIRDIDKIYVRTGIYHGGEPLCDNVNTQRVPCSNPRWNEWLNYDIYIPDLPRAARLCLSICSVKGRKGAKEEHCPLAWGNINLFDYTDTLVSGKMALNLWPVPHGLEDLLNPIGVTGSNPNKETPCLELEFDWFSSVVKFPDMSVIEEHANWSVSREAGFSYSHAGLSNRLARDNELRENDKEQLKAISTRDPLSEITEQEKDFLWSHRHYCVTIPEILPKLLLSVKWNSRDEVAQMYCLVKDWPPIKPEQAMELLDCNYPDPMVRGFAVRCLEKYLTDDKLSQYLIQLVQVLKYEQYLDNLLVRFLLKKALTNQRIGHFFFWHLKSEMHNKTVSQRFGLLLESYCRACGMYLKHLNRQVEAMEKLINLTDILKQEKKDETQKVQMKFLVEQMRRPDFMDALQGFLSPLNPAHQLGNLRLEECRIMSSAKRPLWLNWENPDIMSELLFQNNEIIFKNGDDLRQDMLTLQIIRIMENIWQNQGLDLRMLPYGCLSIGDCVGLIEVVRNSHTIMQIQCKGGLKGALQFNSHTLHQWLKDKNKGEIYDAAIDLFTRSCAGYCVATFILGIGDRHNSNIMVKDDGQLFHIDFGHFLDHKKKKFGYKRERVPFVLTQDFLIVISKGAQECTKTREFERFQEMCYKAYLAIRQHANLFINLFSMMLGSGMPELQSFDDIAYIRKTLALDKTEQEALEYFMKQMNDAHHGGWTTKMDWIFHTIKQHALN

Structure (SMILES): O=C(CCCCCCC(=O)Nc1ccccc1)NO
Activity (DOHH-2 [1]): Active
Activity (DOHH-2 [2]): Active
Activity (DOHH-2 [3]): Active
Activity (DOHH-2 [4]): Active
Activity (OCI-Ly3 [5]): Active

inhibition [6]: Active
inhibition [7]: Active
inhibition [8]: Active
inhibition [9]: Active
Structure (SMILES): CS(=O)(=O)N1CCN(Cc2cc3nc(-c4cccc5[nH]ncc45)nc(N4CCOCC4)c3s2)CC1
Activity (DOHH-2 [1]): Active
Activity (DOHH-2 [2]): Active
Activity (DOHH-2 [4]): Active
Activity (OCI-Ly3 [5]): Active

IC50 (KARPAS-422): 21 nM
IC50 (OCI-Ly3 [12]): 3.6 nM
IC50 (OCI-Ly7): 5.6 nM
IC50 (OCI-LY19): 19.2 nM
IC50 (SU-DHL-5): 3.6 nM
IC50 (SU-DHL-6): 6.5 nM
IC50 (SU-DHL-8): 6.4 nM
IC50 (SU-DHL10): 9.7 nM
inhibition [21]: Active
inhibition [22]: Active
inhibition [23]: Active
inhibition [24]: Active
inhibition [25]: Active
inhibition [26]: Active
inhibition [27]: Active
inhibition [28]: Active
inhibition [29]: Active
inhibition [30]: Active
inhibition [31]: Active
inhibition [32]: Active
inhibition [33]: Active
inhibition [34]: Active
inhibition [35]: Active
inhibition [36]: Active
inhibition [37]: Active
inhibition [38]: Active
inhibition [39]: Active
Structure (SMILES): COc1ccc(-c2cc(OCCN(C)c3ncc(C(=O)NO)cn3)c3ncnc(C)c3c2)cn1
IC50 (DOHH-2 [10]): 7.7 nM
IC50 [11]: 7.9 nM
IC50 (Pfeiffer): 5.3 nM
IC50 (SUD4 [13]): 7.6 nM
IC50 (Toledo): 5.6 nM
IC50 (U2932): 17.7 nM
IC50 (WSUDLCL2): 16 nM
IC50 (WSU-NHL): 5.2 nM
Activity (DOHH-2 [14]): Dde
Activity (DOHH-2 [15]): Dde
Activity (OCI-Ly3 [16]): Dde
Activity (DOHH-2 [17]): Active
Activity (DOHH-2 [18]): Active
Activity (OCI-Ly3 [19]): Active
Activity (OCI-Ly3 [20]): Active
Activity (SUD4 [40]): Active
